Laboratory results: PubChem BioAssay AID330 (DTP/NCI, 2004)
Several values for one entry are separate records, joined by “and”; a condition that tells them apart may be missing. Equal values may be shown once. Toxic doses and inconclusive results are not listed.

Tested on: P388 leukemia ip, CD2F1 mice, survival T/C
Test: NCI In Vivo Anticancer Drug Screen. Data for tumor model P388 Leukemia (intraperitoneal) in CD2F1 (CDF1) mice
Conditions: endpoint: median survival time, higher = longer survival
How it was run: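 Mice carrying the transplanted tumor received test compound or vehicle. Survival was recorded in each group, and the value is the treated-group measurement divided by that of the vehicle-treated control group.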

[1] = dose: 25.0 mg/kg/injection, schedule: Q01DX005 (ip), vehicle: saline with Tween-80
[2] = dose: 50.0 mg/kg/injection, schedule: Q01DX005 (ip), vehicle: saline with Tween-80
[3] = dose: 100.0 mg/kg/injection, schedule: Q01DX005 (ip), vehicle: saline with Tween-80
[4] = dose: 25.0 mg/kg/injection, schedule: Q01DX009 (ip), vehicle: saline with Tween-80
[5] = dose: 50.0 mg/kg/injection, schedule: Q01DX009 (ip), vehicle: saline with Tween-80
[6] = dose: 100.0 mg/kg/injection, schedule: Q01DX009 (ip), vehicle: saline with Tween-80
[7] = dose: 200.0 mg/kg/injection, schedule: Q01DX009 (ip), vehicle: saline with Tween-80
[8] = dose: 50.0 mg/kg/injection, schedule: Q01DX005 (ip), vehicle: Klucel (hydroxypropylcellulose) (HPC)
[9] = dose: 100.0 mg/kg/injection, schedule: Q01DX005 (ip), vehicle: Klucel (hydroxypropylcellulose) (HPC)
[10] = dose: 200.0 mg/kg/injection, schedule: Q01DX005 (ip), vehicle: Klucel (hydroxypropylcellulose) (HPC)
[11] = dose: 400.0 mg/kg/injection, schedule: Q01DX009 (ip), vehicle: saline with Tween-80
[12] = dose: 100.0 mg/kg/injection, schedule: Q04DX003 (ip), vehicle: saline with Tween-80
[13] = dose: 200.0 mg/kg/injection, schedule: Q04DX003 (ip), vehicle: saline with Tween-80
[14] = dose: 6.25 mg/kg/injection, schedule: Q01DX009 (ip), vehicle: distilled water + Tween-80
[15] = dose: 12.5 mg/kg/injection, schedule: Q01DX009 (ip), vehicle: distilled water + Tween-80
[16] = dose: 25.0 mg/kg/injection, schedule: Q01DX009 (ip), vehicle: distilled water + Tween-80
[17] = dose: 100.0 mg/kg/injection, schedule: Q01DX001 (ip), vehicle: Klucel (hydroxypropylcellulose) (HPC)
[18] = dose: 200.0 mg/kg/injection, schedule: Q01DX001 (ip), vehicle: Klucel (hydroxypropylcellulose) (HPC)
[19] = dose: 200.0 mg/kg/injection, schedule: Q01DX009 (ip), vehicle: saline

SMILES: CC(=O)O[C@@H]1C[C@@](C)(C(=O)[C@H]2COC(=O)C2)[C@@H]2CC(=O)O[C@@H]3C[C@H]4[C@H](C)C[C@H](O)C(=O)[C@]4(C)[C@@H]1[C@]23C
- T/C (dose: 3.0 mg/kg/injection, schedule: Q01DX009 (ip), vehicle: saline + alcohol): 98 % of control
- T/C (dose: 6.0 mg/kg/injection, schedule: Q01DX009 (ip), vehicle: saline + alcohol): 116 % of control
- T/C (dose: 12.0 mg/kg/injection, schedule: Q01DX009 (ip), vehicle: saline + alcohol): 107 % of control
- T/C (dose: 24.0 mg/kg/injection, schedule: Q01DX009 (ip), vehicle: saline + alcohol): 100 % of control
- T/C (dose: 48.0 mg/kg/injection, schedule: Q01DX009 (ip), vehicle: saline + alcohol): 107 % of control

SMILES: CC(NNC(=S)N1CCCC1)c1cc2ccccc2cn1 (stereo not drawn)
- T/C [1]: 104 % of control and 108 % of control
- T/C [2]: 110 % of control and 123 % of control
- T/C [3]: 104 % of control

SMILES: O=Nc1cc(S(=O)(=O)O)c2cccnc2c1O
- T/C (dose: 100.0 mg/kg/injection, schedule: Q04DX002 (ip), vehicle: saline): 100 % of control
- T/C (dose: 200.0 mg/kg/injection, schedule: Q04DX002 (ip), vehicle: saline): 100 % of control
- T/C (dose: 400.0 mg/kg/injection, schedule: Q04DX002 (ip), vehicle: saline): 90 % of control

SMILES: OC1CCCSc2ccccc21 (stereo not drawn)
- T/C [4]: 100 % of control and 95 % of control
- T/C (dose: 50.0 mg/kg/injection, schedule: Q01DX009 (ip), vehicle: saline + alcohol): 99 % of control
- T/C [5]: 100 % of control and 97 % of control
- T/C (dose: 100.0 mg/kg/injection, schedule: Q01DX009 (ip), vehicle: saline + alcohol): 96 % of control
- T/C [6]: 98 % of control
- T/C (dose: 200.0 mg/kg/injection, schedule: Q01DX009 (ip), vehicle: saline + alcohol): 105 % of control
- T/C [7]: 118 % of control
- T/C (dose: 400.0 mg/kg/injection, schedule: Q01DX009 (ip), vehicle: saline + alcohol): 103 % of control

SMILES: COC(=O)CC(C)CC(=O)O (stereo not drawn)
- T/C [5]: 100 % of control
- T/C [6]: 107 % of control
- T/C [7]: 100 % of control

SMILES: O=C(CN1CCNCC1)N1CCCC1
- T/C [8]: 106 % of control
- T/C [9]: 97 % of control
- T/C [10]: 98 % of control

SMILES: CC(=O)n1cc(C2CC(=O)OC3=C2CC(=O)C(C)(C)C3)c2ccccc21 (stereo not drawn)
- T/C [4]: 100 % of control
- T/C [5]: 103 % of control
- T/C [6]: 110 % of control
- T/C [7]: 113 % of control
- T/C [11]: 119 % of control

SMILES: O=C(O)c1cccc2c1C(=O)c1ccccc1-2
- T/C [8]: 95 % of control
- T/C [9]: 100 % of control
- T/C [10]: 105 % of control

SMILES: CCCCN(C)N=Nc1c(C(N)=O)n[nH]c1C
- T/C (dose: 44.0 mg/kg/injection, schedule: Q04DX003 (ip), vehicle: saline with Tween-80): 122 % of control
- T/C [12]: 150 % of control
- T/C [13]: 90 % of control

SMILES: COc1cc(/C=N/NS(=O)(=O)c2ccc(C)cc2)cc([N+](=O)[O-])c1O
- T/C (dose: 3.12 mg/kg/injection, schedule: Q01DX009 (ip), vehicle: distilled water + Tween-80): 87 % of control
- T/C [14]: 103 % of control
- T/C [15]: 104 % of control
- T/C [16]: 104 % of control
- T/C (dose: 25.0 mg/kg/injection, schedule: Q01DX009 (ip), vehicle: other): 106 % of control
- T/C (dose: 50.0 mg/kg/injection, schedule: Q01DX009 (ip), vehicle: other): 99 % of control
- T/C (dose: 100.0 mg/kg/injection, schedule: Q01DX009 (ip), vehicle: other): 106 % of control
- T/C (dose: 200.0 mg/kg/injection, schedule: Q01DX009 (ip), vehicle: other): 98 % of control
- T/C (dose: 400.0 mg/kg/injection, schedule: Q01DX009 (ip), vehicle: other): 113 % of control

SMILES: CC(=O)CCC(=O)OC(C)(C)CN
- T/C [6]: 100 % of control
- T/C [12]: 100 % of control
- T/C [7]: 100 % of control
- T/C [13]: 100 % of control
- T/C [11]: 104 % of control
- T/C (dose: 400.0 mg/kg/injection, schedule: Q04DX003 (ip), vehicle: saline with Tween-80): 104 % of control

SMILES: COC1=C(OC)C(=O)C(SC/C=C(\C)CCCC(C)CCCC(C)CCCC(C)C)=CC1=O (stereo not drawn)
- T/C (dose: 6.25 mg/kg/injection, schedule: Q01DX009 (ip), vehicle: saline with Tween-80): 105 % of control and 106 % of control and 113 % of control

SMILES: CN1C(=O)c2ccccc2Cc2c(NCc3ccccc3)ncnc21
- T/C [5]: 108 % of control
- T/C [6]: 104 % of control
- T/C [7]: 100 % of control

SMILES: Cc1nc2c(cnn2C)c(=O)n1C(C)C
- T/C [8]: 104 % of control
- T/C [9]: 112 % of control
- T/C [10]: 111 % of control

SMILES: NC(=O)CCCC(C(N)=O)c1ccccc1 (stereo not drawn)
- T/C [17]: 100 % of control
- T/C [18]: 105 % of control
- T/C (dose: 400.0 mg/kg/injection, schedule: Q01DX001 (ip), vehicle: Klucel (hydroxypropylcellulose) (HPC)): 99 % of control

SMILES: CCCCCCCCCCCCCCCC[N+](C)(C)CCSC(C)=O
- T/C (dose: 0.78 mg/kg/injection, schedule: Q01DX009 (ip), vehicle: acetone): 100 % of control
- T/C (dose: 1.56 mg/kg/injection, schedule: Q01DX009 (ip), vehicle: acetone): 104 % of control
- T/C (dose: 3.12 mg/kg/injection, schedule: Q01DX009 (ip), vehicle: acetone): 104 % of control
- T/C (dose: 6.25 mg/kg/injection, schedule: Q01DX009 (ip), vehicle: acetone): 107 % of control

SMILES: CCNC(=O)OCC1=C(COC(=O)NCC)C2OC1C(C(=O)OC)=C2C(=O)OC
- T/C (dose: 3.13 mg/kg/injection, schedule: Q01DX009 (ip), vehicle: distilled water + Tween-80): 100 % of control
- T/C [14]: 98 % of control
- T/C [15]: 100 % of control and 87 % of control
- T/C [16]: 109 % of control

SMILES: C1OCN2CSCC12 (stereo not drawn)
- T/C (dose: 100.0 mg/kg/injection, schedule: Q04DX002 (ip), vehicle: saline with Tween-80): 116 % of control

SMILES: O=C1CCC(CCl)(C(=O)O)O1 (stereo not drawn)
- T/C (dose: 50.0 mg/kg/injection, schedule: Q01DX009 (ip), vehicle: saline): 106 % of control
- T/C (dose: 100.0 mg/kg/injection, schedule: Q01DX009 (ip), vehicle: saline): 106 % of control
- T/C [19]: 91 % of control

SMILES: C=CC[Si](CC=C)(c1ccccc1)c1ccccc1
- T/C (dose: 6.25 mg/kg/injection, schedule: Q01DX009 (ip), vehicle: saline): 99 % of control and 96 % of control (2×)
- T/C [19]: 98 % of control

SMILES: CN(/C=C/C=C/C=N/O)c1ccccc1
- T/C (dose: 50.0 mg/kg/injection, schedule: Q01DX001 (ip), vehicle: Klucel (hydroxypropylcellulose) (HPC)): 104 % of control
- T/C [17]: 100 % of control
- T/C [18]: 99 % of control

SMILES: O=C(O)c1cc(-c2cccc3ccccc23)nc2ccccc12
- T/C [2]: 94 % of control
- T/C [3]: 94 % of control
- T/C (dose: 200.0 mg/kg/injection, schedule: Q01DX005 (ip), vehicle: saline with Tween-80): 94 % of control

SMILES: CCc1c(NCCCl)c(C(=O)NCCCl)c2nc3ccccc3n2c1NCCCl
- T/C (dose: 3.75 mg/kg/injection, schedule: Q01DX005 (ip), vehicle: saline with Tween-80): 100 % of control
- T/C (dose: 7.5 mg/kg/injection, schedule: Q01DX005 (ip), vehicle: saline with Tween-80): 106 % of control
- T/C (dose: 15.0 mg/kg/injection, schedule: Q01DX005 (ip), vehicle: saline with Tween-80): 108 % of control

SMILES: O=C(c1cccs1)C1NO[N+]([O-])=C1c1cccs1 (stereo not drawn)
- T/C (dose: 6.25 mg/kg/injection, schedule: Q01DX005 (ip), vehicle: saline with Tween-80): 100 % of control
- T/C (dose: 12.5 mg/kg/injection, schedule: Q01DX005 (ip), vehicle: saline with Tween-80): 106 % of control
- T/C [1]: 115 % of control

SMILES: CN=C(N)N/N=C(\C)c1ccc2c(c1)Cc1ccccc1-2
- T/C (dose: 25.0 mg/kg/injection, schedule: Q04DX002 (ip), vehicle: saline with Tween-80): 122 % of control

SMILES: CCOC(=O)c1ccc(NC(=S)Nc2nccs2)cc1
- T/C [16]: 99 % of control
- T/C (dose: 50.0 mg/kg/injection, schedule: Q01DX009 (ip), vehicle: distilled water + Tween-80): 101 % of control
- T/C (dose: 100.0 mg/kg/injection, schedule: Q01DX009 (ip), vehicle: distilled water + Tween-80): 95 % of control
- T/C (dose: 200.0 mg/kg/injection, schedule: Q01DX009 (ip), vehicle: distilled water + Tween-80): 92 % of control
- T/C (dose: 400.0 mg/kg/injection, schedule: Q01DX009 (ip), vehicle: distilled water + Tween-80): 92 % of control
